# Measurements from patent US20250375503A1, “Method and System for Tuning Hormone Receptors through the Dynamic Intravenous Delivery of a Hormone According to a Target Physiological Cadence” (Well Cell Global LLC, priority 2024, published 2025).
# Tested on: human kidney
# Assay: periodic infusion of insulin into a perfused, extracted three-day-old human kidney (similar to PIR treatment)
# Description: For example, using a three-day-old human kidney that was extracted or otherwise removed from the human body, after a control period, the kidney was augmented with a periodic infusion of insulin for approximately two hours at a concentration similar to the amount of insulin projected to be seen by a kidney in situ in a person who would receive physiological insulin resensitization (PIR) treatment.
# The perfusate was sampled before and after passing through the kidney at five-to-fifteen-minute intervals to determine if glucose was being removed and to determine any changes in electrolytes, such as sodium and potassium.
# The ability of the kidney to generate and excrete urine was monitored via a catheter attached to a ureter.
# Two-millimeter punch biopsies were examined approximately every fifteen minutes with a specialized Acquyre Biosciences microscope that produces pseudo-colored images at a cellular level that reflect the extent of intracellular organellar movement. Intracellular movement is dependent on the availability of cytoplasmic ATP (adenosine triphosphate).
substance,measurement,setting,value
insulin,ability of the kidney to generate and excrete urine,"monitored via catheter attached to a ureter, after about one hour of treatment, no excretion during control period",the kidney began to excrete urine
same,glucose ingested by the kidney from the perfusate,"perfusate sampled before and after passing through the kidney at five-to-fifteen-minute intervals, periodic insulin infusion for approximately two hours, versus control period",well in excess of the control level
same,"alteration of electrolyte concentrations (sodium, potassium) in the perfusate","perfusate sampled before and after passing through the kidney, periodic insulin infusion, versus control period",better alter the electrolyte concentrations in a manner similar to a kidney in situ
same,intracellular organellar movement in punch biopsies (reflects cytoplasmic ATP),"two-millimeter punch biopsies, Acquyre Biosciences microscope, after approximately thirty minutes of perfusion, relative to control period",obvious increase in intracellular movement relative to the control period
